Measured values published in patent publication US20260069693A1, “UROLITHINS AND T-CELL MEDIATED IMMUNE RESPONSE” (priority 2022, published 2026).

Experiments:
[1] = cited from earlier work
[2] = test system: Nalm-6 cells; assay: CD19-CAR T cell killing assay; type: cell-based, human; conditions: 24 h co-culture, CAR T cells generated with UA vs DMSO
Procedure: The cytotoxic activity of CD19-CAR T cells generated in presence or absence of UA was determined by CD19-positive Nalm-6 cell killing. Three days post transduction, CAR expression was determined and normalized to equal CAR T cell levels. Cells were washed twice and 0.5×10^4 CAR T cells were seeded into NutriT medium without cytokines, UA or DMSO. Nalm-6 cells were labeled using CellTrace™ Violet (CTV; Thermo Fisher Scientific, C34557) following manufacturer's instructions and 1×10^4 labeled Nalm-6 cells were added to the CAR T cells (0.5:1 effector to target ratio). The amount of dead target cells was determined via flow cytometry 24 h after start of killing.

[3] = test system: T cells; assay: qPCR and RNA sequencing of stimulated T cells; type: cell-based, mice
Procedure: To explore the downstream events linking mitophagy to TSCM formation, the inventors performed RNA sequencing to globally assess differential gene expression in T cells exposed for 48 hours to either DMSO or UA in vitro. […] Indeed, when the inventors applied ICG001 to pharmacologically block TCF-1, UA-induced TSCM formation in vitro was abrogated (FIG. 5D-E).
In vitro activated T cells following the indicated treatments were collected followed by RNA isolation using the RNeasy kit (Qiagen). RNA quality and concentration were determined by Nanodrop spectrophotometer. Complementary DNA was generated using SuperScript II reverse transcriptase (ThermoFisher). A total reaction volume of 13 μl RNA was incubated with oligoDT and DNTP Mix (1 μl each) for 5 min at 65° C. The samples were allowed to cool down for 5 min on ice, and to each 4 μl of 5× First strand buffer, 1 μl DTT, 1 μl RNAseOUT™ and 1 μl Superscript II reverse transcriptase were added. Samples were incubated for 1 h at 42° C. Synthesized cDNA was 1:5 diluted in nuclease free water before being processed into gene expression analysis with the 96 wells StepOne real time PCR Machine (Applied biosystems) using 2× FastStart Universal SYBR Green Master Mix (Roche). CT values were normalized to the gene indicated in the respective figures. The following primers were used: […]
For RNA isolation of in vitro stimulated T cells, RNeasy mini kit (Qiagen) was used. 200 ng of total RNA was used to prepare the library for RNA sequencing. Coexpression patterns of genes associated with effector and memory cell fate, immune checkpoints, effector molecules, and adhesion/homing were chosen based on the literature as depicted in the main text. Data underwent z-score normalization for display as described previously (Xiong et al., 2020). Upstream regulator analysis was performed using Ingenuity pathway analysis software, using a cut-off log 2fold change of 1 and a p value of […].

[4] = test system: APTK-s.c. tumors; assay: subcutaneous APTK tumors, UA-supplemented diet; type: in vivo, C57BL/6 mice
[5] = test system: APTK-s.c. tumors; assay: subcutaneous APTK tumors in Rag1-/- mice, UA diet; conditions: absence of mature T and B cells; UA-containing vs control food
[6] = test system: T cells; assay: immunoblot, cell fractionation and immunofluorescence of stimulated T cells; type: cell-based, mice
Procedure: Activated T cells were incubated on Poly-L-lysine coated coverslips for 10 min at 37° C. and then fixed with 4% PFA for 10 min, followed by permeabilization with 0.25% Triton X-100 for 10 mins. Staining for Pgam5 was performed as previously described (Yamaguchi et al., 2019), using rabbit Anti-Pgam5 antibody (ab126534, Abcam). Immune complexes were detected with 1:200-diluted anti-rabbit IgG Alexa Fluor 488 (Thermo Fisher). Nuclei were counterstained with a DAPI-containing liquid […] mountant (ProLong™ Gold Antifade Mountant, Thermo Fisher). Mitochondria were stained with 200 nM Mitotracker Red for 45 min Image were acquired by confocal microscopy.
5×10^6 isolated T cells were stimulated on cell-culture plates coated with 1:200 α-CD3 (145-2C11; 100339; BioLegend) and α-CD28 (37.51; 102115, Biolegend) for the indicated time points. After centrifugation for 5 mins at 1500 rpm, cell pellets were resuspended in complete protein lysis buffer (50 mM Tris pH 7.5, 250 mM sodium chloride, 30 mM EDTA, 25 mM sodium pyrophosphate, 1% Triton-X 100, 0.5% NP-40, 10% glycerol and 1 mM DTT) supplemented with protease and phosphatase inhibitors (Roche). When subcellular location of Pgam5 was studied, a cell fractionation kit (Abcam, Ab109719) was used according to the manufacturer's instructions. Fractionation and whole-cell lysates were snap frozen and stored at −80° C. until further analysis. Collected lysates were mixed with 10% β-mercaptoethanol Laemmli buffer and denatured for 10 min at 70° C. Equal amounts of protein as assessed by Bradford measurement (Pierce™ Coomassie Plus (Bradford) Assay Reagent, ThermoFisher) were subjected to 10-15% SDS-PAGE, then transferred to […] PVDF membranes (MeckMillipore). Membranes were blocked for 30 mins in PBS-T/5% milk or PBST-T/5% BSA prior to antibody incubation overnight with the following antibodies: β-Actin (Sigma; #A4700), Gapdh (Santacruz; sc32233), Parkin (Santacruz; sc32283), Phospho-β-Catenin (CellSignaling; 9561), TOM20 (CellSignaling; D84TN; 42406S); pStat1 (Cellsignaling; 9167) and PGAM5 (Abcam; ab126534). Afterwards, membranes were incubated for one hour with their respective HRP-conjugated secondary antibodies (Santacruz: sc2314 and sc2313), followed by development using SuperSignal West Pico Chemoluminescence Substrate (ThermoFischer Scientific). 2D densitometry was performed using ImageJ Software (National Institutes of Health, Bethesda, Maryland).

[7] = commercially-available supplements containing UA; cited from earlier work
[8] = test system: APTK organoids; assay: APTK tumor organoids incubated with UA, flow cytometry
[9] = test system: Th1/Th17 cell infiltration; conditions: model of EAE; cited from earlier work
[10] = increasing concentrations of UA (25-50 μM)

Q: Which muscle function ([1]; Rodents fed with a UA-high diet) does the source give for `O=c1oc2cc(O)ccc2c2ccc(O)cc12` [UA, Urolithin A] here?
A: superior muscle function

Q: And the “muscle function in mice with Duchenne muscular dystrophy” value ([1]; UA-high diet)?
A: recovery of muscle function

Q: And the “CD19 CAR-T cell mediated killing of NALM-6 leukemia cells” value [2]?
A: did not have a negative impact

Q: What about the “transcription of several Wnt target genes” value [3] of the same molecule?
A: increased transcription

Q: And the “expression of Cd27, Ccr7 and adhesion genes” value ([3]; RNA sequencing, 48 h)?
A: enhancing expression

Q: What about the “expression of effector fate associated genes Prdm1 and Id2” value ([3]; RNA sequencing, 48 h) of the same molecule?
A: reduced expression

Q: And the “expression of genes that code for immune checkpoints and effector molecules” value ([3]; RNA sequencing, 48 h)?
A: reduced the expression

Q: And the “genes involved in memory formation such as Tcf7, Bach2 and Bcl6” value ([3]; RNA sequencing, 48 h)?
A: special enrichment

Q: And the Atg5 gene expression ([3]; qPCR, 24 h, UA 50 μM)?
A: significant upregulation

Q: What about the Atg7 gene expression ([3]; qPCR, 24 h, UA 50 μM) of the same molecule?
A: significant upregulation

Q: What about the Lamp2 gene expression ([3]; qPCR, 24 h, UA 50 μM) of the same molecule?
A: significant upregulation

Q: What about the Pink1 gene expression ([3]; qPCR, 24 h, UA 50 μM) of the same molecule?
A: significant upregulation

Q: What about the p62 gene expression ([3]; qPCR, 24 h, UA 50 μM) of the same molecule?
A: significant upregulation

Q: What about the “tumor growth, UA diet combined with PD-1 blockade” value ([4]; UA-containing food + a-PD-1) of the same molecule?
A: sensitized APTK tumors to PD-1 blockade

Q: What about the tumor growth ([4]; UA-supplemented diet from day 11 after tumor injection vs control food) of the same molecule?
A: significantly reduced

Q: And the “tumor growth (protective effect of UA)” value [5]?
A: abrogated the protective effect of UA

Q: What about the “phosphorylation of Stat1” value ([6]; UA treated T cells compared to vehicle controls) of the same molecule?
A: equal phosphorylation

Q: What about the Parkin protein expression ([6]; immunoblot, 24 h, UA 50 μM) of the same molecule?
A: stabilized

Q: What about the b-catenin phosphorylation ([6]; immunoblot, after 6 hours, UA 50 μM) of the same molecule?
A: marked decrease

Q: What about the Pgam5 localization ([6]; sub-cellular fractionations and immunofluorescence, 6 h, UA 50 μM) of the same molecule?
A: rapidly released into the cytoplasma

Q: And the “bioavailability profile in humans” value [7]?
A: favorable bioavailability profile

Q: What about the safety in humans [7] of the same molecule?
A: deemed safe

Q: What about the “MHC-I (antigen presentation)” value ([8]; UA 25-50 μM, 48 h) of the same molecule?
A: marked upregulation

Q: What about the MitoTracker staining [8, 10] of the same molecule?
A: concomitant loss

Q: And the “formation of lysosomes (lysotracker)” value [8, 10]?
A: dose-dependent formation

Q: What about the Th1/Th17 cell infiltration [9] of the same molecule?
A: blocking
